The values below are quoted from earlier work in patent US7074430B2, “Controlled release tramadol tramadol formulation” (Euro-Celtique S.A., priority 1994, dated 2006).

The conditions of the data set: value taken for the deconvolution technique.

Regarding `COc1cccc([C@@]2(O)CCCC[C@H]2CN(C)C)c1` (racemic) [tramadol, (±)-trans-2-[(dimethylamino)methyl]-1-(3-methoxyphenyl) cyclohexanol], the elimination half life is 7.8 h.
